Reference: patent publication US20100285959A1, “HERBICIDAL MIXTURES” (priority 2006, published 2010)

Tests used:
Assay in all cases: Test 14 field trial, preemergence, growth as percent of control
[1] = system: common ragweed (AMBEL); format: in vivo, Ambrosia artemisiifolia
Text: (§1) Corn seeds (hybrid ‘Pioneer 31G96 RR’) were planted in mid spring season, 3.8 cm deep in a clay loam soil having 2% organic matter and a pH of 6.6. Plots were 6.1 m long by 3.0 m wide with rows spaced 76 cm apart. Seeds were spaced 15 cm apart within the rows. The field was managed using conventional tillage practices. […] Yellow nutsedge was only evaluated 19 and 28 days after application, and ivyleaf morningglory could only be evaluated 28 days after application. […] Results are the means of the three replicates. This growth inhibition data was converted to results in the form of “plant growth as a percent of control plant growth” using the calculation “100 minus growth inhibition”. […] For “growth as a percent of control” data, Colby's Equation calculates the expected additive effect of herbicidal mixtures having two active ingredients as follows:
(§2) Ga+b=GaGb/100 • wherein Ga+b is the growth as a percent of control of plants treated with the mixture expected from additive contribution of the individual components, • Ga is the observed growth as a percent of control of plants treated with the first active ingredient at the same use rate as in the mixture, and • Gb is the observed growth as a percent of control of plants treated with the second active ingredient at the same use rate as in the mixture. For mixtures having three active ingredients, Colby's Equation to calculate the expected additive effect of herbicidal mixtures is as follows:
(§3) Ga+b+c=GaGbGc/10,000 • wherein Ga and Gb are as defined above and • Ga+b+c is the growth as a percent of control of plants treated with the mixture expected from additive contribution of the individual components, and • Gc is the observed growth as a percent of control of plants treated with the third active ingredient at the same use rate as in the mixture. When these two forms of Colby's Equation are used, if the observed effects on weeds are less than the expected values, the mixture is synergistic.

[2] = system: ivyleaf morningglory (IPOHE); format: in vivo, Ipomoea hederacea; conditions: 28 DAA
Text: as §1, §2, §3

[3] = system: ladysthumb smartweed (POLPE); format: in vivo, Polygonum persicaria
Text: as §1, §2, §3

[4] = system: giant ragweed (AMBTR); format: in vivo, Ambrosia trifida
Text: as §1, §2, §3

[5] = system: giant foxtail (SETFA); format: in vivo, Setaria faberi
Text: as §1, §2, §3

[6] = system: jimsonweed (DATST); format: in vivo, Datura stramonium
Text: as §1, §2, §3

[7] = system: velvetleaf (ABUTH); format: in vivo, Abutilon theophrasti
Text: as §1, §2, §3

[8] = system: yellow nutsedge (CYPES); format: in vivo, Cyperus esculentus
Text: as §1, §2, §3

With CCS(=O)(=O)c1cccnc1S(=O)(=O)NC(=O)Nc1nc(OC)cc(OC)n1 [Rimsulfuron] the “Obs growth % of control” value ([1]; 19 DAA, 12 g a.i./ha) was 88%, the “Obs growth % of control” value ([1]; 19 DAA, 24 g a.i./ha) was 80% and the “Obs growth % of control” value ([1]; 19 DAA, 36 g a.i./ha) was 68%. For the same compound, the “Obs growth % of control” value ([1]; 28 DAA, 12 g a.i./ha) was 100%, the “Obs growth % of control” value ([1]; 28 DAA, 24 g a.i./ha) was 45% and the “Obs growth % of control” value ([1]; 28 DAA, 36 g a.i./ha) was 33%. The “Obs growth % of control” value ([1]; 56 DAA, 12 g a.i./ha) was 85%, the “Obs growth % of control” value ([1]; 56 DAA, 24 g a.i./ha) was 63% and the “Obs growth % of control” value ([1]; 56 DAA, 36 g a.i./ha) was 53%. The “Obs growth % of control” value ([2]; 12 g a.i./ha) was 100%, the “Obs growth % of control” value ([2]; 24 g a.i./ha) was 3% and the “Obs growth % of control” value ([2]; 36 g a.i./ha) was 43%. The “Obs growth % of control” value ([3]; 19 DAA, 12 g a.i./ha) was 82%, the “Obs growth % of control” value ([3]; 19 DAA, 24 g a.i./ha) was 58% and the “Obs growth % of control” value ([3]; 19 DAA, 36 g a.i./ha) was 32%. The “Obs growth % of control” value ([3]; 28 DAA, 12 g a.i./ha) was 100%, the “Obs growth % of control” value ([3]; 28 DAA, 24 g a.i./ha) was 33% and the “Obs growth % of control” value ([3]; 28 DAA, 36 g a.i./ha) was 35%. For the same compound, the “Obs growth % of control” value ([3]; 56 DAA, 12 g a.i./ha) was 100%, the “Obs growth % of control” value ([4]; 19 DAA, 12 g a.i./ha) was 88% and the “Obs growth % of control” value ([4]; 19 DAA, 24 g a.i./ha) was 80%. The “Obs growth % of control” value ([4]; 19 DAA, 36 g a.i./ha) was 75%, the “Obs growth % of control” value ([4]; 28 DAA, 12 g a.i./ha) was 100% and the “Obs growth % of control” value ([4]; 28 DAA, 24 g a.i./ha) was 60%. The “Obs growth % of control” value ([4]; 28 DAA, 36 g a.i./ha) was 60%, the “Obs growth % of control” value ([4]; 56 DAA, 12 g a.i./ha) was 90% and the “Obs growth % of control” value ([4]; 56 DAA, 24 g a.i./ha) was 83%. For the same compound, the “Obs growth % of control” value ([4]; 56 DAA, 36 g a.i./ha) was 68%, the “Obs growth % of control” value ([5]; 19 DAA, 12 g a.i./ha) was 32% and the “Obs growth % of control” value ([5]; 19 DAA, 24 g a.i./ha) was 33%. For the same compound, the “Obs growth % of control” value ([5]; 19 DAA, 36 g a.i./ha) was 7%, the “Obs growth % of control” value ([5]; 28 DAA, 12 g a.i./ha) was 33% and the “Obs growth % of control” value ([5]; 28 DAA, 24 g a.i./ha) was 9%. The “Obs growth % of control” value ([5]; 28 DAA, 36 g a.i./ha) was 5%, the “Obs growth % of control” value ([5]; 56 DAA, 12 g a.i./ha) was 70% and the “Obs growth % of control” value ([5]; 56 DAA, 24 g a.i./ha) was 40%. The “Obs growth % of control” value ([5]; 56 DAA, 36 g a.i./ha) was 28%, the “Obs growth % of control” value ([6]; 19 DAA, 12 g a.i./ha) was 100% and the “Obs growth % of control” value ([6]; 19 DAA, 24 g a.i./ha) was 93%. The “Obs growth % of control” value ([6]; 19 DAA, 36 g a.i./ha) was 85%, the “Obs growth % of control” value ([6]; 28 DAA, 12 g a.i./ha) was 100% and the “Obs growth % of control” value ([6]; 28 DAA, 24 g a.i./ha) was 62%. For the same compound, the “Obs growth % of control” value ([6]; 28 DAA, 36 g a.i./ha) was 48%, the “Obs growth % of control” value ([6]; 56 DAA, 12 g a.i./ha) was 100% and the “Obs growth % of control” value ([6]; 56 DAA, 24 g a.i./ha) was 92%. For the same compound, the “Obs growth % of control” value ([6]; 56 DAA, 36 g a.i./ha) was 92%, the “Obs growth % of control” value ([7]; 19 DAA, 12 g a.i./ha) was 78% and the “Obs growth % of control” value ([7]; 19 DAA, 24 g a.i./ha) was 62%. For the same compound, the “Obs growth % of control” value ([7]; 19 DAA, 36 g a.i./ha) was 52%, the “Obs growth % of control” value ([7]; 28 DAA, 12 g a.i./ha) was 53% and the “Obs growth % of control” value ([7]; 28 DAA, 24 g a.i./ha) was 13%. The “Obs growth % of control” value ([7]; 28 DAA, 36 g a.i./ha) was 15%, the “Obs growth % of control” value ([7]; 56 DAA, 12 g a.i./ha) was 93% and the “Obs growth % of control” value ([7]; 56 DAA, 24 g a.i./ha) was 65%. For the same compound, the “Obs growth % of control” value ([7]; 56 DAA, 36 g a.i./ha) was 62%, the “Obs growth % of control” value ([8]; 19 DAA, 12 g a.i./ha) was 85% and the “Obs growth % of control” value ([8]; 19 DAA, 24 g a.i./ha) was 85%. The “Obs growth % of control” value ([8]; 19 DAA, 36 g a.i./ha) was 70%, the “Obs growth % of control” value ([8]; 28 DAA, 12 g a.i./ha) was 83% and the “Obs growth % of control” value ([8]; 28 DAA, 24 g a.i./ha) was 60%. For the same compound, the “Obs growth % of control” value ([8]; 28 DAA, 36 g a.i./ha) was 50%.
